The values below come from patent publication US20260297083A1, “SUBSTITUTED ACETYLENE COMPOUND DERIVATIVES AND THEIR PHARMACEUTICAL USE” (AVELOS THERAPEUTICS INC., priority 2023, published 2026).

The assay has as its system DLD-1 BRCA2(−/−) Cell. The assay can be described thus: Cell viability assay (Resazurin) in DLD1-BRCA2 cells. The assay is classed as cell-based. The following applies: Homo sapiens, DLD-1, 336 h, 14 days, 1,500 cells/well, final DMSO 1%. As for the experimental part:
DLD1-BRCA2 KG (Horizon Discovery, Cat #HD 105-007) cells and DLD1-parental cells were maintained in culture media (RPMI-1640 including 2 mM L-glutamin and 25 mM sodium bicarbonate, supplemented with 10% FBS), at 37° C. in a humidified atmosphere with 5% CO2. Cells were seeded at the final concentration of 1,500 cells/well (DLD1-BRCA2 KG) and 600 cells/well (DLD1-parental) in a 96-well plate. Four hours later, test compounds were added (the final concentration of DMSO was 1%) to the cells and media were replaced every 3-4 days for 14 days. To measure viability, cells were incubated in culture media supplemented with 0.1 mg/ml of Resazurin (Merck, Cat #R7017) for 4 hours. The fluorescence was measured at Ex/Em=560 nm/590 nm using EnSight multimode plate reader (Perkin Elmer). Data analysis and IC50 calculation was done using GraphPad Prism (Version 10.0.2).
For orientation: Resazurin is reduced to fluorescent resorufin, in cell work by metabolically active cells.
Usually IC50 stands for the concentration that gives 50% inhibition. For `Cc1ccc(F)c(N(CC#Cc2cnc(NC(C)C)cn2)C(=O)[C@@H]2CCS(=O)(=O)N2c2cc(C(F)(F)F)cc(C)n2)c1` [Example 37, (S)-N-(2-fluoro-5-methylphenyl)-N-(3-(5-(isopropylamino)pyrazin-2-yl)prop-2-yn-1-yl)-2-(6-methyl-4-(trifluoromethyl)pyridin-2-yl)isothiazolidine-3-carboxamide 1,1-dioxide], the half-inhibitory concentration (IC50) was 1.1 to 5 µM.
Then `Cc1cc(C(F)(F)F)cc(N2[C@H](C(=O)N(CC#Cc3cnc(N4CC5(COC5)C4)cn3)c3ccc(F)c(C)c3)CCS2(=O)=O)n1` [Example 38, (S)-N-(3-(5-(2-oxa-6-azaspiro[3.3]heptan-6-yl)pyrazin-2-yl)prop-2-yn-1-yl)-N-(4-fluoro-3-methylphenyl)-2-(6-methyl-4-(trifluoromethyl)pyridin-2-yl)isothiazolidine-3-carboxamide 1,1-dioxide], with 1.1 to 5 µM.
For the compound `Cc1cc(C(F)(F)F)cc(N2[C@H](C(=O)N(CC#Cc3cnc(N4CCOCC4)cn3)c3ccc(F)c(C)c3)CCS2(=O)=O)n1` [Example 39, (S)-N-(4-fluoro-3-methylphenyl)-2-(6-methyl-4-(trifluoromethyl)pyridin-2-yl)-N-(3-(5-orpholinopyrazin-2-yl)prop-2-yn-1-yl)isothiazolidine-3-carboxamide 1,1-dioxide], the IC50 was less than 1 µM.
The value for `Cc1ccc(F)c(N(CC#Cc2cnc(N3CCOCC3)cn2)C(=O)[C@@H]2CCS(=O)(=O)N2c2cc(C(F)(F)F)cc(C)n2)c1` [Example 40, (S)-N-(2-fluoro-5-methylphenyl)-2-(6-methyl-4-(trifluoromethyl)pyridin-2-yl)-N-(3-(5-morpholinopyrazin-2-yl)prop-2-yn-1-yl)isothiazolidine-3-carboxamide 1,1-dioxide] was 1.1 to 5 µM; that for `Cc1ccc(F)c(N(CC#Cc2cnc(N3CCOCC3)cn2)C(=O)[C@H]2CCS(=O)(=O)N2c2cc(C(F)(F)F)cc(C)n2)c1` [Example 41, (R)-N-(2-fluoro-5-methylphenyl)-2-(6-methyl-4-(trifluoromethyl)pyridin-2-yl)-N-(3-(5-morpholinopyrazin-2-yl)prop-2-yn-1-yl) isothiazolidine-3-carboxamide 1,1-dioxide] was greater than 5.1 µM.
Then `Cc1cc(C(F)(F)F)cc(N2[C@H](C(=O)N(CC#Cc3cncc(N4CCOCC4)n3)c3ccc(F)c(C)c3)CCS2(=O)=O)n1` [Example 42, (S)-N-(4-fluoro-3-methylphenyl)-2-(6-methyl-4-(trifluoromethyl)pyridin-2-yl)-N-(3-(6-morpholinopyrazin-2-yl)prop-2-yn-1-yl)isothiazolidine-3-carboxamide 1,1-dioxide], with less than 1 µM.
The value for `Cc1cc(C(F)(F)F)cc(N2[C@H](C(=O)N(CC#Cc3ncc(N4CCOCC4)nc3N)c3ccc(F)c(C)c3)CCS2(=O)=O)n1` [Example 43] was 1.1 to 5 µM; that for `Cc1cc(C(F)(F)F)cc(N2[C@H](C(=O)N(CC#Cc3cnc(N4CCOCC4)c(N)n3)c3ccc(F)c(C)c3)CCS2(=O)=O)n1` [Example 44, (S)-N-(3-(6-amino-5-morpholinopyrazin-2-yl)prop-2-yn-1-yl)-N-(4-fluoro-3-methylphenyl)-2-(6-methyl-4-(trifluoromethyl)pyridin-2-yl)isothiazolidine-3-carboxamide 1,1-dioxide] was 1.1 to 5 µM; that for `Cc1cc(C(F)(F)F)cc(N2[C@H](C(=O)N(CC#Cc3cnc(N4CCOCC4)c(C)n3)c3ccc(F)c(C)c3)CCS2(=O)=O)n1` [Example 45, (S)-N-(4-fluoro-3-methylphenyl)-2-(6-methyl-4-(trifluoromethyl)pyridin-2-yl)-N-(3-(6-methyl-5-morpholinopyrazin-2-yl)prop-2-yn-1-yl)isothiazolidine-3-carboxamide 1,1-dioxide] was less than 1 µM.
Regarding `Cc1cc(C(F)(F)F)cc(N2[C@H](C(=O)N(CC#Cc3cnc(N4CCOCC4)c(C(F)(F)F)n3)c3ccc(F)c(C)c3)CCS2(=O)=O)n1` [Example 46, (S)-N-(4-fluoro-3-methylphenyl)-2-(6-methyl-4-(trifluoromethyl)pyridin-2-yl)-N-(3-(5-morpholino-6-(trifluoromethyl)pyrazin-2-yl)prop-2-yn-1-yl)isothiazolidine-3-carboxamide 1,1-dioxide], the IC50 was 1.1 to 5 µM.
The value for `Cc1cc(C(F)(F)F)cc(N2[C@H](C(=O)N(CC#Cc3cnc(N4C[C@@H](C)O[C@@H](C)C4)cn3)c3ccc(F)c(C)c3)CCS2(=O)=O)n1` [Example 47, (S)-N-(3-(5-((2S,6R)-2,6-dimethylmorpholino)pyrazin-2-yl)prop-2-yn-1-yl)-N-(4-fluoro-3-methylphenyl)-2-(6-methyl-4-(trifluoromethyl)pyridin-2-yl)isothiazolidine-3-carboxamide 1,1-dioxide] was 1.1 to 5 µM; that for `Cc1cc(C(F)(F)F)cc(N2[C@H](C(=O)N(CC#Cc3cnc(N4CC5CCC(C4)O5)cn3)c3ccc(F)c(C)c3)CCS2(=O)=O)n1` [Example 48, (3S)-N-(3-(5-(8-oxa-3-azabicyclo[3.2.1]octan-3-yl)pyrazin-2-yl)prop-2-yn-1-yl)-N-(4-fluoro-3-methylphenyl)-2-(6-methyl-4-(trifluoromethyl)pyridin-2-yl)isothiazolidine-3-carboxamide 1,1-dioxide] was less than 1 µM; that for `Cc1cc(C(F)(F)F)cc(N2[C@H](C(=O)N(CC#Cc3cnc(N4C5CCC4COC5)cn3)c3ccc(F)c(C)c3)CCS2(=O)=O)n1` [Example 49, (3S)-N-(3-(5-(3-oxa-8-azabicyclo[3.2.1]octan-8-yl)pyrazin-2-yl)prop-2-yn-1-yl)-N-(4-fluoro-3-methylphenyl)-2-(6-methyl-4-(trifluoromethyl)pyridin-2-yl)isothiazolidine-3-carboxamide 1,1-dioxide] was less than 1 µM.
The value for `CCN1CCN(c2cnc(C#CCN(C(=O)[C@@H]3CCS(=O)(=O)N3c3cc(C(F)(F)F)cc(C)n3)c3ccc(F)c(C)c3)cn2)CC1` [Example 50, (S)-N-(3-(5-(4-ethylpiperazin-1-yl)pyrazin-2-yl)prop-2-yn-1-yl)-N-(4-fluoro-3-methylphenyl)-2-(6-methyl-4-(trifluoromethyl)pyridin-2-yl)isothiazolidine-3-carboxamide 1,1-dioxide] was less than 1 µM; that for `CCN1CCN(c2cnc(C#CCN(C(=O)[C@@H]3CCS(=O)(=O)N3c3cc(C(F)(F)F)cc(C)n3)c3cc(C)ccc3F)cn2)CC1` [Example 51, (S)-N-(3-(5-(4-ethylpiperazin-1-yl)pyrazin-2-yl)prop-2-yn-1-yl)-N-(2-fluoro-5-methylphenyl)-2-(6-methyl-4-(trifluoromethyl)pyridin-2-yl)isothiazolidine-3-carboxamide 1,1-dioxide] was less than 1 µM.
The compound `Cc1cc(C(F)(F)F)cc(N2[C@H](C(=O)N(CC#Cc3cnc(N4C[C@H](C)N[C@@H](C)C4)cn3)c3ccc(F)c(C)c3)CCS2(=O)=O)n1` [Example 52, (S)-N-(3-(5-((3S,5S)-3,5-dimethylpiperazin-1-yl)pyrazin-2-yl)prop-2-yn-1-yl)-N-(4-fluoro-3-methylphenyl)-2-(6-methyl-4-(trifluoromethyl)pyridin-2-yl)isothiazolidine-3-carboxamide 1,1-dioxide] had an IC50 of less than 1 µM.
The compound `Cc1cc(C(F)(F)F)cc(N2[C@H](C(=O)N(CC#Cc3cnc(N4C[C@H](C)N(C(C)C)[C@@H](C)C4)cn3)c3ccc(F)c(C)c3)CCS2(=O)=O)n1` [Example 53, (S)-N-(4-fluoro-3-methylphenyl)-N-(3-(5-((3S,5S)-4-isopropyl-3,5-dimethylpiperazin-1-yl)pyrazin-2-yl)prop-2-yn-1-yl)-2-(6-methyl-4-(trifluoromethyl)pyridin-2-yl)isothiazolidine-3-carboxamide 1,1-dioxide] showed an IC50 of less than 1 µM.
The compound `Cc1cc(C(F)(F)F)cc(N2[C@@H](C(=O)N(CC#Cc3cnc(N4C[C@H](C)N(C(C)C)[C@@H](C)C4)cn3)c3ccc(F)c(C)c3)CCS2(=O)=O)n1` [Example 54, (R)-N-(4-fluoro-3-methylphenyl)-N-(3-(5-((3S,5S)-4-isopropyl-3,5-dimethylpiperazin-1-yl)pyrazin-2-yl)prop-2-yn-1-yl)-2-(6-methyl-4-(trifluoromethyl)pyridin-2-yl)isothiazolidine-3-carboxamide 1,1-dioxide] had a half-maximal inhibitory concentration (IC50) greater than 5.1 µM.
The compound `Cc1cc(C(F)(F)F)cc(N2[C@H](C(=O)N(CC#Cc3cnc(N4[C@H](C)CN(C(C)C)C[C@H]4C)cn3)c3ccc(F)c(C)c3)CCS2(=O)=O)n1` [Example 55, (S)-N-(4-fluoro-3-methylphenyl)-N-(3-(5-((2R,6R)-4-isopropyl-2,6-dimethylpiperazin-1-yl)pyrazin-2-yl)prop-2-yn-1-yl)-2-(6-methyl-4-(trifluoromethyl)pyridin-2-yl)isothiazolidine-3-carboxamide 1,1-dioxide] came in with an IC50 of less than 1 µM.
Take `Cc1cc(C(F)(F)F)cc(N2[C@H](C(=O)N(CC#Cc3cnc(-c4c[nH]nn4)cn3)c3ccc(F)c(C)c3)CCS2(=O)=O)n1` [Example 56, (S)-N-(3-(5-(1H-1,2,3-triazol-4-yl)pyrazin-2-yl)prop-2-yn-1-yl)-N-(4-fluoro-3-methylphenyl)-2-(6-methyl-4-(trifluoromethyl)pyridin-2-yl)isothiazolidine-3-carboxamide 1,1-dioxide]: the 50% inhibitory concentration (IC50) was less than 1 µM.
The value for `Cc1cc(C(F)(F)F)cc(N2[C@H](C(=O)N(CC#Cc3cnc(-n4ccnn4)cn3)c3ccc(F)c(C)c3)CCS2(=O)=O)n1` [Example 57, (S)-N-(3-(5-(1H-1,2,3-triazol-1-yl)pyrazin-2-yl)prop-2-yn-1-yl)-N-(4-fluoro-3-methylphenyl)-2-(6-methyl-4-(trifluoromethyl)pyridin-2-yl)isothiazolidine-3-carboxamide 1,1-dioxide] was less than 1 µM.
